Test results: PMC6934184, “Selective DNA-PKcs inhibition extends the therapeutic index of localized radiotherapy and chemotherapy” (The Journal of Clinical Investigation, 2019)

Target: T1, NEK4 (Homo sapiens, UniProt P51957)
T1 construct: purchased Thermo Fisher Scientific (Life Technologies) SelectScreen
Experiment: SelectScreen Z'LYTE
Type: biochemical
Method in brief: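 SelectScreen broad panel; activity (Z'LYTE, Adapta) plus binding formats. ATP: Km app for CSF1R Z'LYTE; 10 for CAMK1 Adapta. Readout = % per kinase.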

T1 sequence (P51957 whole entry): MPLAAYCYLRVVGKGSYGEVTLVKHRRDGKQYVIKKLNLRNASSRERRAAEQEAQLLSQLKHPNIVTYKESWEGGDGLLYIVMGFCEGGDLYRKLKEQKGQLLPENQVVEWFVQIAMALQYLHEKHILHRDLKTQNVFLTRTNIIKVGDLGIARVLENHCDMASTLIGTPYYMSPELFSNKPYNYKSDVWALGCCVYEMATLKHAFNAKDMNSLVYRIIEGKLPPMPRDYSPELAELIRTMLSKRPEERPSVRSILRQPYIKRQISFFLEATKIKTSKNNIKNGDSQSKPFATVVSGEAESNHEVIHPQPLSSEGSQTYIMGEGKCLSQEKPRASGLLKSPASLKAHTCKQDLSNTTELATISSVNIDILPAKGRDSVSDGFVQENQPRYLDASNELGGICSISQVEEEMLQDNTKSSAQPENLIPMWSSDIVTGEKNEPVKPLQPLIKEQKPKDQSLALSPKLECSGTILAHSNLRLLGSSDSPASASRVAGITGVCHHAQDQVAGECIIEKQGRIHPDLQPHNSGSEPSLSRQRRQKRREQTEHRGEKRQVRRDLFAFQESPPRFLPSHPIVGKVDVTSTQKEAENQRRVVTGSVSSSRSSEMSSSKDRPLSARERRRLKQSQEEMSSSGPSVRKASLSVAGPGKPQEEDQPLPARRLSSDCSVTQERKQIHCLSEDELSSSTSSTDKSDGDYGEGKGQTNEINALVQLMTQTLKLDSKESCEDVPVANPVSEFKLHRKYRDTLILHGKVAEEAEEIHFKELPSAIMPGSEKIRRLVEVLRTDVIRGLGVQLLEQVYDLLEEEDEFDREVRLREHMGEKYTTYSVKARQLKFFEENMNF

Compound: CN(C(=O)CN1CCOCC1)c1ccc2sc3c(-c4cccc5c(=O)cc(N6CC7CCC(C6)O7)oc45)cccc3c2c1 [NU5455]
- inhibition at 1 µM: -11.6%
